Results as given in the NIST ThermoML archive (doi:10.1016/j.jct.2012.03.034).

Assay: xn = mol fraction of the nth substance listed
Settings: 101 kPa, Liquid; for speed of sound: Linear variable-path acoustic interferometer; for mass density: Vibrating tube method; for viscosity: dual vibrating plate viscometer, AandD Co. Ltd Model SV-10

CC(=O)O.CCN(CC)CC [triethylammonium acetate] + CN1CCCC1=O
Settings	mass density [kg/m3]	speed of sound [m/s]	viscosity [mPa·s]
298.15 K, x1 = 0.0138	1026.09	1564	1.61
298.15 K, x1 = 0.0302	1026.34	1559	1.76
298.15 K, x1 = 0.0813	1026.88	1556	2.79
298.15 K, x1 = 0.117	1026.93	1554	3.21
298.15 K, x1 = 0.1733	1026.39	1555	3.79
298.15 K, x1 = 0.2751	1023.97	1560	4.02
298.15 K, x1 = 0.3189	1022.57	1566	3.83
298.15 K, x1 = 0.3865	1019.96	1578	3.58
298.15 K, x1 = 0.5133	1015.18	1603	3.4
298.15 K, x1 = 0.6561	1010.89	1648	4.71
298.15 K, x1 = 0.8181	1009.29	1714	10.14
298.15 K, x1 = 0.926	1011.5	1776	17.25
298.15 K, x1 = 0.9642	1012.97	1799	20.16
298.15 K, x1 = 1	1015.86	1840	24.12
303.15 K, x1 = 0.0138	1024.21	1555	1.52
303.15 K, x1 = 0.0302	1024.48	1555	1.84
303.15 K, x1 = 0.0813	1024.64	1553	2.67
303.15 K, x1 = 0.117	1024.37	1554	3.1
303.15 K, x1 = 0.1733	1023.53	1555	3.42
303.15 K, x1 = 0.2751	1020.86	1561	3.62
303.15 K, x1 = 0.3189	1019.42	1566	3.55
303.15 K, x1 = 0.3865	1016.89	1579	3.18
303.15 K, x1 = 0.5133	1012.16	1602	2.7
303.15 K, x1 = 0.6561	1007.69	1645	3.42
303.15 K, x1 = 0.8181	1005.54	1713	8.21
303.15 K, x1 = 0.926	1006.58	1769	14.2
303.15 K, x1 = 0.9642	1007.74	1797	17
303.15 K, x1 = 1	1009.58	1824	19.6
308.15 K, x1 = 0.0138	1020.18	1530	1.5
308.15 K, x1 = 0.0302	1020.47	1533	1.81
308.15 K, x1 = 0.0813	1020.35	1536	2.61
308.15 K, x1 = 0.117	1019.88	1539	3.03
308.15 K, x1 = 0.1733	1018.8	1544	3.36
308.15 K, x1 = 0.2751	1015.91	1553	3.28
308.15 K, x1 = 0.3189	1014.49	1559	3.14
308.15 K, x1 = 0.3865	1011.99	1572	2.59
308.15 K, x1 = 0.5133	1007.46	1593	2.51
308.15 K, x1 = 0.6561	1003.25	1632	3.1
308.15 K, x1 = 0.8181	1000.89	1698	7.76
308.15 K, x1 = 0.926	1001.01	1753	13.1
308.15 K, x1 = 0.9642	1001.75	1776	14.98
308.15 K, x1 = 1	1002.61	1798	16.13
313.15 K, x1 = 0.0138	1015.8	1525	1.47
313.15 K, x1 = 0.0302	1016.2	1527	1.72
313.15 K, x1 = 0.0813	1016.66	1529	2.3
313.15 K, x1 = 0.117	1016.4	1530	2.78
313.15 K, x1 = 0.1733	1015.69	1535	3.04
313.15 K, x1 = 0.2751	1013.39	1543	2.98
313.15 K, x1 = 0.3189	1012.13	1548	2.83
313.15 K, x1 = 0.3865	1010.15	1561	2.38
313.15 K, x1 = 0.5133	1006.1	1582	2.34
313.15 K, x1 = 0.6561	1002.5	1616	3.01
313.15 K, x1 = 0.8181	1000.41	1669	7.08
313.15 K, x1 = 0.926	1000.32	1716	11.65
313.15 K, x1 = 0.9642	1000.61	1735	13.39
313.15 K, x1 = 1	1000.97	1752	14.81
